Measurements published in patent publication US20190328706A1, “COMPOSITIONS COMPRISING AN INTEGRIN INHIBITOR AND AGENTS WHICH INTERACT WITH A CHEMOKINE AND METHODS OF USE THEREOF” (Saint Louis University, priority 2016, published 2019).

System: human G2 acute lymphoblastic leukemia (ALL) cells
Test: Flow cytometry cell-based assay: inhibition of soluble VCAM-1 binding to G2 ALL cells
Details: for IC50: Table 8, inhibition of sVCAM-1 binding to human G2 ALL cells, read-out: sVCAM-1 IC50; for inhibition of sVCAM-1 binding compared with other inhibitors / inhibition of sVCAM-1 binding compared with Firategrast: flow cytometry; for inhibition of sVCAM-1 binding compared with other inhibitors: FIG. 6, 7, 10, 11; for inhibition of sVCAM-1 binding compared with Firategrast: FIG. 5, 8, 9, 12
Procedure: (§1) Compounds were tested for their ability to inhibit the binding of soluble VCAM-1 to human G2 acute lymphoblastic leukemia (ALL) cells. Briefly, G2 ALL cells are pre-incubated with increasing concentrations (0.001 to 1000 nM) of compounds for 30 minutes. Soluble VCAM/Fc chimera protein (R&D systems) is then added to the mixture and the cells incubated for an additional 30 minutes. Afterwards, cells are washed and VCAM-1 is detected using PE-conjugated secondary mAbs. In each experiment, an aliquot of cells will be stained with isotype control mAbs to serve as a negative control. The percentage of VCAM-1 binding cells was then determined by flow cytometry.
as §1, with “(ALL) cells or 5TGMI myeloma” for “(ALL)”, “ALL or 5TGMI” for “ALL”

Structure (SMILES)	IC50 [nM]	inhibition of sVCAM-1 binding compared with other inhibitors	inhibition of sVCAM-1 binding compared with Firategrast
COc1cc(C(=O)O)cc(OC)c1-c1ccc(C[C@H](NC(=O)c2c(Cl)cc(C(=O)O)cc2Cl)C(=O)O)cc1 [Compound 1222, 4-{4-[(2S)-2-carboxy-2-[(4-carboxy-2,6-dichlorophenyl)formamido]ethyl]phenyl}-3,5-dimethoxybenzoic acid]	218		
COc1cc(C(C)(C)O)cc(OC)c1-c1ccc(C[C@H](NC(=O)c2c(Cl)cc(C(=O)O)cc2Cl)C(=O)O)cc1 [Compound 1223, 4-{[(1S)-1-carboxy-2-{4-[4-(2-hydroxypropan-2-yl)-2,6-dimethoxyphenyl]phenyl}ethyl]carbamoyl}-3,5-dichlorobenzoic acid]	70		
CCCCCCOCc1cc(OC)c(-c2ccc(C[C@H](NC(=O)c3c(Cl)cc(C(=O)O)cc3Cl)C(=O)O)cc2)c(OC)c1 [Compound 1555, (S)-4-((1-carboxy-2-(4′-((hexyloxy)methyl)-2′,6′-dimethoxy-[1,1′-biphenyl]-4-yl)ethyl)carbamoyl)-3,5-dichlorobenzoic acid]	12.9		greater inhibition of sVCAM-1 binding than did Firategrast
CCCCCC(=O)OCc1cc(OC)c(-c2ccc(C[C@H](NC(=O)c3c(Cl)cc(C(=O)O)cc3Cl)C(=O)O)cc2)c(OC)c1 [Compound 1571, (S)-4-((1-carboxy-2-(4′-((hexanoyloxy)methyl)-2′,6′-dimethoxy-[1,1′-biphenyl]-4-yl)ethyl)carbamoyl)-3,5-dichlorobenzoic acid]	4.43		greater inhibition of sVCAM-1 binding than did Firategrast

Compounds with a lower IC50, results first:

IC50 [nM]	Structure (SMILES)	inhibition of sVCAM-1 binding compared with other inhibitors	inhibition of sVCAM-1 binding compared with Firategrast
0.58	CCOCc1cc(OC)c(-c2ccc(C[C@H](NC(=O)c3c(Cl)cc(C(=O)O)cc3Cl)C(=O)O)cc2)c(OC)c1 [Compound 1221, 4-{[(1S)-1-carboxy-2-{4-[4-(ethoxymethyl)-2,6-dimethoxyphenyl]phenyl}ethyl]carbamoyl}-3,5-dichlorobenzoic acid]	more potent inhibitors than 823	
1.57	COc1cc(CF)cc(OC)c1-c1ccc(C[C@H](NC(=O)c2c(Cl)cc(C(=O)O)cc2Cl)C(=O)O)cc1 [Compound 1224, 4-{[(1S)-1-carboxy-2-{4-[4-(fluoromethyl)-2,6-dimethoxyphenyl]phenyl}ethyl]carbamoyl}-3,5-dichlorobenzoic acid]	more potent inhibitors than 823	
1.47	COCCOCc1cc(OC)c(-c2ccc(C[C@H](NC(=O)c3c(Cl)cc(C(=O)O)cc3Cl)C(=O)O)cc2)c(OC)c1 [Compound 1554, (S)-4-((1-carboxy-2-(2′,6′-dimethoxy-4′-((2-methoxyethoxy)methyl)-[1,1′-biphenyl]-4-yl)ethyl)carbamoyl)-3,5-dichlorobenzoic acid]		greater inhibition of sVCAM-1 binding than did Firategrast
2.97	COCCOCCOCCOCc1cc(OC)c(-c2ccc(C[C@H](NC(=O)c3c(Cl)cc(C(=O)O)cc3Cl)C(=O)O)cc2)c(OC)c1 [Compound 1570, (S)-4-((2-(4′-(2,5,8,11-tetraoxadodecyl)-2′,6′-dimethoxy-[1,1′-biphenyl]-4-yl)-1-carboxyethyl)carbamoyl)-3,5-dichlorobenzoic acid]		greater inhibition of sVCAM-1 binding than did Firategrast
2.47	CCOCc1cc(OC)c(-c2ccc(C[C@H](NC(=O)[C@]3(C)CCCN3S(=O)(=O)c3cc(Cl)cc(Cl)c3)C(=O)O)cc2)c(OC)c1 [Compound 1608, (S)-2-((S)-1-((3,5-dichlorophenyl)sulfonyl)-2-methylpyrrolidine-2-carboxamido)-3-(4′-(ethoxymethyl)-2′,6′-dimethoxy-[1,1′-biphenyl]-4-yl)propanoic acid]		significantly more potent than Firategrast
